Tests used:
neural stem cells = assay: In vitro differentiation assay on adult neural stem cells (beta-III-tubulin promoter firefly/Renilla dual luciferase reporter); assay type: cell-based, rat; settings: for Stimulation factor for differentiation of neural stem cells / fold induction at 1 µM: 1 μM final compound concentration, in comparison to sham treatment; for differentiation of neural stem cells to neurons, dose dependence: 0.2 μM up to 25, 50 or 100 μM, compared with sham and 1 μM retinoic acid; for fold induction at 1 µM: Rattus norvegicus, Neural stem cell, read-out: Stimulation factor for differentiation of neural stem cells
Source text: The neuroregenerative effect of the compounds according to the present invention can be assayed in vitro by measuring their stimulation of the differentiation of neural stem cells. Therefore, adult neural stem cells have to be isolated and subsequently cultivated in a suitable culture medium. After several passages in vitro the stem cells have to be co-transfected with a DNA construct coding for two discriminable reporter proteins one of them under the control of a constitutive promoter and the other under the control of a beta-III-tubulin promoter. The beta-III-tubulin promoter is induced during the process of neural stem cell differentiation; therefore the reporter protein under the control of this promoter serves as a marker for the stem cell differentiation in such an in vitro dual reporter assay (Schneider et al., J Clin Investigation 2005; 115:2083-2098). The person skilled in the art knows several suitable constitutive promoters such as the SV40-promoter, the TK-promoter, or the CMV-promoter. As discriminable reporter proteins for such a dual reporter assay one can use discriminable luciferases such as firefly luciferase and Renilla luciferase. The transfected cells have to be incubated with the test compound and with a positive and negative controls for normalization and background correction. As a positive control compound one can use retinoic acid (Guan et al., Cell Tissue Res. 2001; 305:171-176; Jacobs et al., Proc. Natl. Acad. Sci. USA 2006; 103:3902-3907), a suitable negative control is the sham treatment of the cells. The neroregenerative activity of the test compound is determined as the ratio of the signal of the beta-III-tubulin promoter controlled reporter versus the signal of the constitutively expressed reporter and is expressed as fold from the control. This assay is suitable to assess the neuroregenerative activity of piperine and derivatives thereof, but also can be used to screen for other potential neuroregenerative compounds. Preferably, such a screening can be used to test compounds which are already known to be suitable as a medicament in terms of its toxicology, bioavailability, solubility, stability etc.
Neural stem cells were isolated from the subventricular zone of 4 week-old male Wistar rats as described (Maurer et al, Proteome Sci. 2003; 1:4). Cells were cultivated in Neurobasal medium (Invitrogen) supplemented with B27 (Invitrogen), 2 mM L-glutamine, 100 units/ml penicillin, 100 units/ml streptomycin, 20 ng/ml […] (EGF), 20 ng/ml fibroblast growth factor-2 (FGF-2), and 2 μg/ml heparin. Once a week the neural stem cells were passaged and experiments were performed after 4 weeks in vitro. For DNA transfection, the cells were dissociated and plated on poly-L-ornithin/laminin-coated 96-well plates at a density of 50.000 cells/well. Cotransfection with the pGL3-p-βIII-tubulin vector (100 ng/well) and the pRL SV40 vector (100 ng/well) was carried out according to the FuGene6 Transfection protocol (Roche). The pRL SV40 vector (Promega) served as an internal control vector.
To amplify the class III β-tubulin gene promoter (fragment −450-+54), rat genomic DNA was used as a template for PCR (Dennis et al., Gene 2002; 294:269-277). The amplified fragment was inserted into the Mlu I/Xho I site of the pGL3-Basic firefly luciferase reporter vector (Promega) to generate the pGL3-p-βIII-tubulin experimental vector.
After overnight incubation, the plate was decanted and given in 8-fold replicates fresh medium containing piperine (Sigma) or vehicle. As a positive control for in vitro differentiation, stem cells were treated by adding 1 μM retinoic acid (Sigma) to the medium missing the mitogens.
After 48 hrs, the cells were harvested to prepare the cellular extracts for luciferase assay following the directions of the manufacturer (Promega). […]

SH-SY5Y neuronal cells [1] = assay: In vitro anti-apoptosis assay, staurosporine induced apoptosis, Caspase-Glo 3/7; assay type: cell-based, human; settings: for degree of apoptosis relative to the staurosporine control: compound 1 μM in the presence of staurosporine 0.1 μM
[2] = system: motoneural cell line NSC-34; assay: Anti-apoptosis assay on motoneural cell line, staurosporine induced apoptosis, Caspase-Glo 3/7; assay type: cell-based; settings: for degree of apoptosis relative to the staurosporine control: compound 1 μM in the presence of staurosporine 0.1 μM
Protocol: Instead of the SH-SY5Y cells used in Example 3 and 4, this analysis was performed with motoneural cell line NSC-34. […] Incubation with staurosporine (SP; 0.1 μM) alone served as positive control and incubation with vehicle served as negative control. The degree of apoptosis relative to the staurosporine control is shown in FIG. 4 (vehicle (sham): 6%; staurosporine (SP): 100%; piperine plus staurosporine: 70%; derivative B plus staurosporine: 55%; derivative E plus staurosporine: 75%; derivative G plus staurosporine: 76%; derivative K plus staurosporine: 83%; derivative S plus staurosporine: 77%; derivative U plus staurosporine: 71%).

SH-SY5Y neuronal cells [3] = assay: In vitro viability assay, cells stably transfected with constitutive Renilla luciferase; settings: 1 μM, 5 h
Source text: The viability assay allows for further assessment of test compounds regarding their effect on cells such as neurons. […] Subsequently, the signal generated by the reporter construct serves as a readout for the viability of the cells in the presence of the test compound. The assay enables the evaluation of potential neurotoxic effects of the test compound itself.
The effect of a compound on the viability of neuronal cells can be assayed in vitro by measuring the survival of neuronal cells transfected with a reporter construct under a constitutive promoter. SH-SY5Y neuronal cells stably transfected with a Renilla luciferase construct under the SV40 promoter were seeded in 96-well plates at a density of 2.5×10^4 cells per well. Following overnight incubation the cells were stimulated with medium containing piperine or vehicle. Staurosporine (0.1 μM) served as positive control. The Renilla luciferase activity was measured 5 h later using a luminometer (Berthold Technologies, Mithras LB 940). Piperine was tested in a range from 0.1 nM to 100 μM final concentration.

Compound | differentiation of neural stem cells to neurons, dose dependence (neural stem cells) | fold induction at 1 µM (neural stem cells) | degree of apoptosis relative to the staurosporine control (SH-SY5Y neuronal cells [1]; SH-SY5Y) [%] | further results
3-(Chloro-3,4-dihydro-2H-benzo[b][1,4]dioxepin-7-yl)N-cyclohexyl-acrylamide |  |  |  | Stimulation factor for differentiation of neural stem cells (neural stem cells): 1.7 x-fold
NC1(C(=O)/C=C/c2ccc3c(c2)OCO3)CCCCCC1 [1-(3-trans-benzo-1,3-dioxol-5-ylacryloyl)cycloheptylamine] | significantly stimulates | 4 | 49 | degree of apoptosis relative to the staurosporine control [2]: 55%
NC1(C(=O)/C=C/c2ccc3c(c2)OCO3)CCCC1 [1-(3-trans-benzo-1,3-dioxol-5-ylacryloyl)cyclopentylamine] | significantly stimulates | 1.4 | 77 | 
O=C(/C=C/c1ccc2c(c1)OCO2)N1CCCC1 [1-(3-trans-benzo-1,3-dioxol-5-ylacryloyl)pyrrolidine] | significantly stimulates | 1.3 | 72 | 
O=C(C=Cc1ccc2c(c1)OCCCO2)N1CCCCCC1 [1-Azepan-1-yl-3-(3,4-dihydro-2H-benzo[b][1,4]dioxepin-7-yl)-propenone] | significantly stimulates |  | 83 | Stimulation factor for differentiation of neural stem cells (neural stem cells): 6.1 x-fold; viability of neuronal cells (SH-SY5Y neuronal cells [3]): did not show reduced viability; degree of apoptosis relative to the staurosporine control [2]: 83%
O=C(C=Cc1cc(Cl)c2c(c1)OCCO2)N1CCCCCC1 [1-Azepan-1-yl-3-(8-chloro-2,3-dihydro-benzol[1,4]dioxin-6-yl)-propenone] |  |  |  | Stimulation factor for differentiation of neural stem cells (neural stem cells): 1.8 x-fold
O=C(C=Cc1cc(Cl)c2c(c1)OCCCO2)N1CCCCCC1 [1-Azepan-1-yl-3-(9-chloro-3,4-dihydro-2H-benzo[b][1,4]dioxepin-7-yl)-propenone] |  |  |  | Stimulation factor for differentiation of neural stem cells (neural stem cells): 2.2 x-fold
CC1CCN(C(=O)C=Cc2ccc3c(c2)OCO3)CC1 [1-[3-(1,3-benzodioxol-5-yl)acryloyl]-4-methylpiperidine] | significantly stimulates | 1.9 |  | 
CCCOc1ccc(C=CC(=O)N2CCCCCC2)cc1 [1-[3-(4-propoxyphenyl)acryloyl]azepane] |  | 2.3 |  | 
CCCOc1ccc(C=CC(=O)N2CCCCC2)cc1 [1-[3-(4-propoxyphenyl)acryloyl]piperidine] | significantly stimulates | 4 | 81 | degree of apoptosis relative to the staurosporine control [2]: 77%
O=C(C=Cc1ccc2c(c1)OCO2)NCC1CCCO1 (stereo not shown) [3-(1,3-benzodioxol-5-yl)-N-(tetrahydro-2-furanylmethyl)acrylamide] |  | 1.5 |  | 
O=C(C=Cc1ccc2c(c1)OCO2)NC1CC2CCC1C2 (stereo not shown) [3-(1,3-benzodioxol-5-yl)-N-bicyclo[2.2.1]hept-2-ylacrylamide] |  | 1.7 |  | 
O=C(C=Cc1ccc2c(c1)OCO2)NC1CCCCCCC1 [3-(1,3-benzodioxol-5-yl)-N-cyclooctylacrylamide] | significantly stimulates | 5 | 77 | degree of apoptosis relative to the staurosporine control [2]: 75%
CCOc1ccc(C=CC(=O)NC2CCCO2)cc1 (stereo not shown) [3-(4-ethoxyphenyl)-N-(tetrahydro-2-furanyl)acrylamide] |  | 1.5 |  | 
O=C(C=Cc1ccc2c(c1)OCO2)NC1=NCCS1 [3-Benzol[1,3]dioxol-5-yl-N-(4,5-dihydro-thiazol-2-yl)-acrylamide] | significantly stimulates |  | 79 | Stimulation factor for differentiation of neural stem cells (neural stem cells): 4.6 x-fold; viability of neuronal cells (SH-SY5Y neuronal cells [3]): did not show reduced viability; degree of apoptosis relative to the staurosporine control [2]: 76%
O=C(/C=C/c1ccc(Cl)cc1)N1CCCCC1 [(2E)-3-(4-chlorophenyl)-1-piperidylprop-2-en-1-one] | significantly stimulates |  | 60 | Stimulation factor for differentiation of neural stem cells (neural stem cells): 4.4 x-fold; viability of neuronal cells (SH-SY5Y neuronal cells [3]): did not show reduced viability; degree of apoptosis relative to the staurosporine control [2]: 71%
CCCOc1ccc(C=CC(=O)NC2CCCCCC2)cc1 [N-cycloheptyl-3-(4-propoxyphenyl)acrylamide] | significantly stimulates | 1.7 |  | 
CCOc1ccc(C=CC(=O)NC2CCCCC2)cc1 [N-cyclohexyl-3-(4-ethoxyphenyl)acrylamide] |  | 1.7 |  | 
COc1ccc(C=CC(=O)NC2CCCCCCC2)cc1 [N-cyclooctyl-3-(4-methoxyphenyl)acrylamide] | significantly stimulates | 1.9 |  | 
CCCOc1ccc(C=CC(=O)NC2CCCC2)cc1 [N-cyclopentyl-3-(4-propoxyphenyl)acrylamide] | significantly stimulates | 1.6 |  | 
COc1cccc(NC(=O)/C=C/c2ccc(Cl)cc2)c1 [SB366791, reference compound] |  |  |  | inhibition of the neuroregenerative effect of piperine (neural stem cells; SB366791 10 μM co-incubated with 10 μM piperine): did not result in any inhibition; inhibition of the neuroprotective effect of piperine (SH-SY5Y neuronal cells [1]; SB366791 10 nM to 100 nM with piperine 10 μM and staurosporine 0.1 μM): did not result in any inhibition
COc1cc(CNC(=O)CCCC/C=C/C(C)C)ccc1O [capsaicin, reference compound] |  |  |  | stimulating effect on the differentiation of neural stem cells (neural stem cells; 0.1 nM to 100 μM final concentration): no stimulating effect; anti-apoptotic effect compared to piperine (10 μM) (SH-SY5Y neuronal cells [1]; capsaicin 10 μM with staurosporine 0.1 μM): only a marginal anti-apoptotic effect
CN[C@@H]1C[C@H]2O[C@@](C)([C@@H]1OC)n1c3ccccc3c3c4c(c5c6ccccc6n2c5c31)C(=O)NC4 [staurosporine, reference compound] |  |  |  | degree of apoptosis relative to the staurosporine control (staurosporine alone) (SH-SY5Y neuronal cells [1]; staurosporine 0.1 μM alone, positive control, SH-SY5Y): 100%; degree of apoptosis relative to the staurosporine control (staurosporine alone) ([2]; staurosporine 0.1 μM alone, positive control): 100%

From US20100179130A1, “USE OF PIPERINE AND DERIVATIVES THEREOF FOR THE THERAPY OF NEUROLOGICAL CONDITIONS” (SYNGIS Bioscience GmbH & Co. KG, priority 2007, published 2010)
